{"source": "patent US11117894B2", "about": "“Pyridopyrazine compounds and uses thereof” (CITY OF HOPE, priority 2017, dated 2021)", "key": {"A2058 melanoma": {"system": "A2058 melanoma", "assay": "MTS cell viability assay, A2058 melanoma cell line", "type": "cell-based", "settings": "48 h; for IC50: Homo sapiens, MTS; for Viability % CTL A2058 melanoma: Table 1, screened at 10 μM; for Viability (% CTL) at 10 μM A2058 melanoma: Table 2, 10 μM; for Viability % CTL A2058 melanoma (10 μM): Table 4, 10 μM", "method": "(§1) MTS assays were performed for cell viability. To determine if novel pyridopyrazine derivatives have antitumor activities, compounds were screened at 10 μM final concentration with A2058 melanoma and DU145 prostate cancer cell lines. Compounds #16 and #17 were selected to determine IC50 values against lung cancer cell lines, including A549, DMS273, H69, H513, H2461, DMS114, H358 and H2596. In this assay, cells (5000/well) were seeded in 96-well plates, incubated overnight at 37° C. in 5% CO2, and exposed to 10 μM of compounds or in a dose-dependent manner for 48 h. After 48 h treatment with compounds, MTS dye (20 μL/well) was added to 96-well plates. Viable cell numbers were determined by tetrazolium conversion to its formazan dye. Absorbance was measured at 490 nm using an automated ELISA plate reader. Dimethyl sulfoxide (DMSO) was used as the vehicle control. Each experiment was conducted in triplicate. IC50 values were determined using CalcuSyn software (Biosoft)."}, "DU145 prostate cancer": {"system": "DU145 prostate cancer", "assay": "MTS cell viability assay, DU145 prostate cancer cell line", "type": "cell-based", "settings": "48 h; for IC50: Homo sapiens, DU-145, DU145 prostate cancer, MTS; for Viability % CTL DU145 prostate: Table 1, screened at 10 μM; for Viability (% CTL) at 10 μM DU145 prostate: Table 2; for Viability % CTL DU145 prostate (10 μM ): Table 4", "method": "as §1"}, "A549 NSCLC": {"system": "A549 NSCLC", "assay": "MTS cell viability assay, A549 lung cancer cell line", "type": "cell-based", "settings": "Homo sapiens, 48 h", "method": "as §1"}, "[1]": {"system": "DMS273 small cell lung cancer", "assay": "MTS cell viability assay, DMS273 lung cancer cell line", "type": "cell-based", "settings": "Homo sapiens, DMS-273, 48 h", "method": "as §1"}, "[2]": {"system": "H69 small cell lung cancer", "assay": "MTS cell viability assay, H69 lung cancer cell line", "type": "cell-based", "settings": "48 h", "method": "as §1"}, "H513 NSCLC": {"system": "H513 NSCLC", "assay": "MTS cell viability assay, H513 lung cancer cell line", "type": "cell-based", "settings": "48 h", "method": "as §1"}, "H2461 NSCLC": {"system": "H2461 NSCLC", "assay": "MTS cell viability assay, H2461 lung cancer cell line", "type": "cell-based", "settings": "48 h", "method": "as §1"}, "[3]": {"system": "DMS114 small cell lung cancer", "assay": "MTS cell viability assay, DMS114 lung cancer cell line", "type": "cell-based", "settings": "Homo sapiens, DMS-114, 48 h", "method": "as §1"}, "H358 NSCLC": {"system": "H358 NSCLC", "assay": "MTS cell viability assay, H358 lung cancer cell line", "type": "cell-based", "settings": "Homo sapiens, NCI-H358, 48 h", "method": "as §1"}, "H2596 NSCLC": {"system": "H2596 NSCLC", "assay": "MTS cell viability assay, H2596 lung cancer cell line", "type": "cell-based", "settings": "48 h", "method": "as §1"}}, "data": [{"smiles": "Cc1nc2nc(Nc3ccccc3)cnc2cc1NC(=O)Nc1ccc(F)c(Cl)c1", "note": "[Compound 17, 1-(3-Chloro-4-fluorophenyl)-3-(6-methyl-3-(phenylamino)pyrido[2,3-b]pyrazin-7-yl)urea]", "values": [{"measurement": "IC50", "setting": "A2058 melanoma", "result": 1130, "unit": "nM"}, {"measurement": "Viability % CTL A2058 melanoma", "setting": "A2058 melanoma", "result": 2, "unit": "% CTL"}, {"measurement": "IC50", "setting": "DU145 prostate cancer", "result": 1040, "unit": "nM"}, {"measurement": "Viability % CTL DU145 prostate", "setting": "DU145 prostate cancer", "result": 0, "unit": "% CTL"}, {"measurement": "IC50", "setting": "A549 NSCLC", "result": 920, "unit": "nM"}, {"measurement": "IC50", "setting": "[1]", "result": 320, "unit": "nM"}, {"measurement": "IC50", "setting": "[2]", "result": 510, "unit": "nM"}, {"measurement": "IC50", "setting": "H513 NSCLC", "result": 690, "unit": "nM"}, {"measurement": "IC50", "setting": "H2461 NSCLC", "result": 800, "unit": "nM"}, {"measurement": "IC50", "setting": "[3]", "result": 720, "unit": "nM"}, {"measurement": "IC50", "setting": "H358 NSCLC", "result": 1180, "unit": "nM"}, {"measurement": "IC50", "setting": "H2596 NSCLC", "result": 620, "unit": "nM"}]}, {"smiles": "Cc1nc2nc(Nc3ccccc3)cnc2cc1NC(=O)c1ccc(N)cc1", "note": "[Compound 13, 4-Amino-N-(6-methyl-3-(phenylamino)pyrido[2,3-b]pyrazin-7-yl)benzamide]", "values": [{"measurement": "Viability (% CTL) at 10 μM A2058 melanoma", "setting": "A2058 melanoma", "result": 84, "unit": "% CTL"}, {"measurement": "Viability (% CTL) at 10 μM DU145 prostate", "setting": "DU145 prostate cancer", "result": 77, "unit": "% CTL"}, {"measurement": "melting point", "result": 265, "unit": "°C"}]}, {"smiles": "Cc1nc2nc(Nc3ccccc3)cnc2cc1NC(=O)Nc1cccc(C(F)(F)F)c1", "note": "[Compound 16, 1-(6-Methyl-3-(phenylamino)pyrido[2,3-b]pyrazin-7-yl)-3-(3-(trifluoromethyl)phenyl)urea]", "values": [{"measurement": "IC50", "setting": "A2058 melanoma", "result": 1290, "unit": "nM"}, {"measurement": "Viability % CTL A2058 melanoma", "setting": "A2058 melanoma", "result": 4, "unit": "% CTL"}, {"measurement": "IC50", "setting": "DU145 prostate cancer", "result": 1720, "unit": "nM"}, {"measurement": "Viability % CTL DU145 prostate", "setting": "DU145 prostate cancer", "result": 10, "unit": "% CTL"}, {"measurement": "IC50", "setting": "A549 NSCLC", "result": 1540, "unit": "nM"}, {"measurement": "IC50", "setting": "[1]", "result": 1090, "unit": "nM"}, {"measurement": "IC50", "setting": "[2]", "result": 980, "unit": "nM"}, {"measurement": "IC50", "setting": "H513 NSCLC", "result": 1260, "unit": "nM"}, {"measurement": "IC50", "setting": "H2461 NSCLC", "result": 1710, "unit": "nM"}, {"measurement": "IC50", "setting": "[3]", "result": 3150, "unit": "nM"}, {"measurement": "IC50", "setting": "H358 NSCLC", "result": 1970, "unit": "nM"}, {"measurement": "IC50", "setting": "H2596 NSCLC", "result": 1070, "unit": "nM"}]}, {"smiles": "Cc1nc2nccnc2cc1NC(=S)NCc1ccccc1", "note": "[Compound 18A]", "values": [{"measurement": "Viability % CTL A2058 melanoma", "setting": "A2058 melanoma", "result": 74, "unit": "% CTL"}, {"measurement": "Viability % CTL DU145 prostate", "setting": "DU145 prostate cancer", "result": 89, "unit": "% CTL"}]}, {"smiles": "CCN(CC)CCNCC(=O)Nc1cc2ncc(Nc3ccccc3)nc2nc1C", "note": "[Compound 27E]", "values": [{"measurement": "Viability (% CTL) at 10 μM A2058 melanoma", "setting": "A2058 melanoma", "result": 85, "unit": "% CTL"}, {"measurement": "Viability (% CTL) at 10 μM DU145 prostate", "setting": "DU145 prostate cancer", "result": 82, "unit": "% CTL"}]}, {"smiles": "Cc1nc2nccnc2cc1NC(=O)Nc1cccc(C(F)(F)F)c1", "note": "[Compound 17A]", "values": [{"measurement": "Viability % CTL A2058 melanoma", "setting": "A2058 melanoma", "result": 79, "unit": "% CTL"}, {"measurement": "Viability % CTL DU145 prostate", "setting": "DU145 prostate cancer", "result": 98, "unit": "% CTL"}]}, {"smiles": "CC(=O)Nc1cccc(Nc2cnc3cc(NC(=O)Nc4cccc(C(F)(F)F)c4)c(C)nc3n2)c1", "note": "[Compound 31, N-(3-((6-Methyl-7-(3-(3-(trifluoromethyl)phenyl)ureido)pyrido[2,3-b]pyrazin-3-yl)amino)phenyl)acetamide]", "values": [{"measurement": "Viability % CTL A2058 melanoma (10 μM)", "setting": "A2058 melanoma", "result": 119, "unit": "% CTL"}, {"measurement": "Viability % CTL DU145 prostate (10 μM )", "setting": "DU145 prostate cancer", "result": 62, "unit": "% CTL"}]}, {"smiles": "Cc1ccc(S(=O)(=O)Nc2cc3nccnc3nc2C)cc1", "note": "[Compound 19A]", "values": [{"measurement": "Viability % CTL A2058 melanoma", "setting": "A2058 melanoma", "result": 59, "unit": "% CTL"}, {"measurement": "Viability % CTL DU145 prostate", "setting": "DU145 prostate cancer", "result": 122, "unit": "% CTL"}]}, {"smiles": "Cc1nc2nccnc2cc1NC(=O)c1ccc(Br)cc1F", "note": "[Compound 10A]", "values": [{"measurement": "Viability % CTL A2058 melanoma", "setting": "A2058 melanoma", "result": 93, "unit": "% CTL"}, {"measurement": "Viability % CTL DU145 prostate", "setting": "DU145 prostate cancer", "result": 95, "unit": "% CTL"}]}, {"smiles": "Cc1nc2nc(Oc3ccccc3)cnc2cc1[N+](=O)[O-]", "note": "[Compound 55C]", "values": [{"measurement": "Viability % CTL A2058 melanoma", "setting": "A2058 melanoma", "result": 91, "unit": "% CTL"}, {"measurement": "Viability % CTL DU145 prostate", "setting": "DU145 prostate cancer", "result": 95, "unit": "% CTL"}]}, {"smiles": "CSc1ccc(NC(=O)Nc2cc3ncc(Nc4ccccc4)nc3nc2C)cc1", "note": "[Compound 18, 1-(6-Methyl-3-(phenylamino)pyrido[2,3-b]pyrazin-7-yl)-3-(4-(methylthio)phenyl)urea]", "values": [{"measurement": "IC50", "setting": "A2058 melanoma", "result": 1300, "unit": "nM"}, {"measurement": "Viability % CTL A2058 melanoma (10 μM)", "setting": "A2058 melanoma", "result": 7, "unit": "% CTL"}, {"measurement": "IC50", "setting": "DU145 prostate cancer", "result": 2400, "unit": "nM"}, {"measurement": "Viability % CTL DU145 prostate (10 μM )", "setting": "DU145 prostate cancer", "result": 6, "unit": "% CTL"}]}, {"smiles": "Cc1nc2nc(Nc3ccccc3)cnc2cc1N", "note": "[Compound 7, 6-Methyl-N^3-phenylpyrido[2,3-b]pyrazine-3,7-diamine]", "values": [{"measurement": "Viability (% CTL) at 10 μM A2058 melanoma", "setting": "A2058 melanoma", "result": 98, "unit": "% CTL"}, {"measurement": "Viability (% CTL) at 10 μM DU145 prostate", "setting": "DU145 prostate cancer", "result": 76, "unit": "% CTL"}, {"measurement": "melting point", "result": "> 300 °C (dec.)"}]}, {"smiles": "Cc1nc2nccnc2cc1NC(=O)Nc1ccccc1", "note": "[Compound 15A]", "values": [{"measurement": "Viability % CTL A2058 melanoma", "setting": "A2058 melanoma", "result": 73, "unit": "% CTL"}, {"measurement": "Viability % CTL DU145 prostate", "setting": "DU145 prostate cancer", "result": 104, "unit": "% CTL"}]}, {"smiles": "Cc1nc2nc(Sc3ccccc3)cnc2cc1NC(=O)c1cccc(C(F)(F)F)c1", "note": "[Compound 15B]", "values": [{"measurement": "Viability % CTL A2058 melanoma", "setting": "A2058 melanoma", "result": 61, "unit": "% CTL"}, {"measurement": "Viability % CTL DU145 prostate", "setting": "DU145 prostate cancer", "result": 113, "unit": "% CTL"}]}, {"smiles": "Cc1nc2nc(Sc3ccccc3)cnc2cc1NC(=O)Nc1cccc(C(F)(F)F)c1", "note": "[Compound 17B]", "values": [{"measurement": "Viability % CTL A2058 melanoma", "setting": "A2058 melanoma", "result": 56, "unit": "% CTL"}, {"measurement": "Viability % CTL DU145 prostate", "setting": "DU145 prostate cancer", "result": 101, "unit": "% CTL"}]}]}
